Tested on: SD rats
Assay: acute toxicity, single oral dose
Assay type: in vivo
Settings: single intragastric administration, 14 days observation
Source text: Trial method: 30 SD rats, half male and half female, were used. The average weight was 160-200 g for female rats and 180-220 g for male rats when grouped. An individual weight should be within ±20% of the average weight. Before the test, animals needed to accommodate to the environment for at least 5 days, and healthy rats (female rats should be not pregnant) were selected as test animals. Matter detected during the accommodation period mainly was: whether the rats were consistent with quality indexes required in the order; detection of general conditions; and whether the weight was within the weight range required by the test. Unqualified abnormal animals were excluded from the test. A single dosage was orally administered to rats at a low, medium, or high dose. […] A control group was set with the oral administration of the same volume of solvent.
The rats were observed about 0-2 h and 4-6 h after each administration. If a toxicity symptom occurs, the rats may be observed more times. (2) Gross anatomical observation: on the 14th day of the test, all surviving rats in each group were dissected and observed, and for administration sites and gross dissection, abnormal organs and tissues which were observed and found to be potentially related to test samples were photographed and recorded. (3) Disposal of dying animals: status of rats and observation time were recorded, and their weights were measured. (4) Disposal of dead animals: the time of death or when a rat was found dead were recorded. The rat was measured for weight before quickly dissected for gross observation and speculated for a cause of death.

Measured: Test Endpoint (toxic side effects)

COc1c2cc(c(O)c1OC)CCCCC(OS(=O)(=O)O)CCc1ccc(O)c-2c1 (stereo not shown) [compound H, 11-sulfonyloxy myricanol]
No obvious toxic: 100 mg/kg | 300 mg/kg | 1000 mg/kg | 1500 mg/kg

Source: patent US11602514B2, “Medicament having anti-inflammatory bowel disease function, and preparation method therefor and application thereof” (SUZHOU PHARMAVAN CO., LTD, priority 2018, dated 2023)
